From PMC10253591, “A Non-Systemic Phosphodiesterase-5 Inhibitor Suppresses Colon Proliferation in Mice” (International Journal of Molecular Sciences, 2023)

Tests used:
mice [1] = test: Arterial blood pressure by telemetry, interaction with isosorbide mononitrate; assay type: in vivo; conditions: ISMN 300 mg/kg i.p. alone (oral vehicle), baseline around 100 mmHg
Protocol: Male C57BL/6J mice (n = 4) were implanted with a PA-C10 blood pressure transmitter in the right carotid artery (Data Sciences International, St. Paul, MN, USA), and after recovery from surgery, the data was recorded using the DSI PhysioTel system (Data Sciences International, St. Paul, MN, USA). For each experiment, the mice were randomly selected for treatment with ISMN mixed in diH20, and 0.1 mL was injected i.p. for a final dose of 300 mg/kg. […] The experiment was repeated until each treatment had been reproduced in 5 independent biological trials after which mice were euthanized.
The surgical procedures and implantable telemetry approach for measuring blood pressure in mice have been described in detail previously. In brief, all surgical instruments were autoclaved on a stainless-steel tray that was used as the sterile surface during surgery. The mouse is anesthetized in an isoflurane-inducing chamber. Anesthesia used a fitted nose cone connected to an isoflurane system running 2% in a stream of 100% oxygen mixed with room air. The incision area was shaved and prepped with betadine and rinsed with 70% ethanol. Anesthesia was assessed continuously during shaving and prepping for surgery, with appropriate adjustments. An approximately 10 mm incision was made in the ventral neck region over the trachea to expose the […]. […]

[2] = system: LS-174T colon cancer cells; test: Cell-based permeability assay: cellular cGMP (ELISA) in linaclotide-treated cells; conditions: LS-174T cells; for EC50: Homo sapiens, LS174T, 1 µM linaclotide, 4 h, cGMP ELISA, read-out: EC50 for increasing cellular cGMP levels
Protocol: The cell-based permeability assays were performed using LS-174T colon cancer cells obtained from the American Type Culture Collection. Cells were treated with 1 µM linaclotide together with different PDE5i concentrations for 4 h, followed by processing of cell extracts for cellular cGMP measurement using cGMP ELISA kits according to the manufacturer instructions (Cayman Chemical, Ann Arbor, MI, USA). The calculated EC50 values are the concentration of compound required to increase cellular cGMP levels by 50% of maximum based on predictions determined by curve fitting in GraphPad Prism 9 (San Diego, CA, USA). To assess activation of cGMP signaling by immunoblotting, we used LS174T cells with inducible PKG2 expression that were described recently.

human PDE5a = target: T1, human PDE5a (Homo sapiens, UniProt O76074); test: In vitro assay for PDE5 inhibitory activity (commercial kit); assay type: biochemical; conditions: mean of n = 3
T1 construct: purchased BPS Bioscience

colon epithelium = test: Cell proliferation in the colon epithelium (Ki67 flow cytometry, PCNA IHC); assay type: in vivo; conditions: mice, 9 mg/kg in drinking water; for Ki67+ cells, median: 8 days, proximal colon epithelium, flow cytometry, control 23%; for reduction of number of PCNA+ cells/crypt: distal colon, IHC
Text: Mice were weighed daily, and after at least 5 days of continuous consumption they were sacrificed, and the colon was dissected and processed for quantitation of proliferation by flow cytometry (proximal region) and by IHC (distal region). For flow cytometry, the epithelium was enriched by isolating crypts as described previously, followed by ethanol fixation and staining with phycoerythrin-conjugated anti-mouse Ki-67 antibodies according to the manufacturer instructions (Biolegend, San Diego, CA, USA). Flow cytometry was carried out using a BD Accuri C6 flow cytometer, and data were analyzed using FCS Express 7 software (De Novo Software, Pasadena, CA, USA). Processing the distal colon tissues for histology and immunohistochemistry was carried out as previously described. Briefly, tissues were fixed with 10% formaldehyde, embedded in paraffin blocks, and sectioned by the Augusta University histology core. The tissues were probed using antibodies to PCNA (1:100; Cell Signaling, Danvers, MA, USA). Visualization of PCNA antibodies was carried out using the ImmunoCruz ABC kit (Santa Cruz Biotechnology, Dallas, TX, USA). At least 10 different regions of the colon containing approximately 8 crypts per region were counted for each mouse.

[3] = LC-MS/MS measurement of compound in plasma and feces after oral gavage; conditions: mice; for level in feces: feces collected between 2–4 h
mice [4] = test: Tolerability and plasma level with compound in drinking water for up to 8 days; assay type: in vivo
in vivo = conditions: both, mouse, po
[5] = both, mouse, in vivo, po
[6] = Tolerability and plasma level with compound in drinking water for up to 8 days; assay type: in vivo; conditions: male, mouse, plasma, oral, 9 mg/kg daily; mice, in drinking water for 8 days
[7] = 9 mg/kg in drinking water, up to 8 days

EC50 [2]	fold less potent than parent compound at increasing cGMP levels, based upon EC50 ([2]; versus sildenafil)	IC50 (human PDE5a)	level in feces ([3]; oral 9 mg/kg)	level in feces ([3]; oral 36 mg/kg)	level in plasma ([3]; oral, doses up to 36 mg/kg, 1 h after administration)	excretion in feces ([3]; single oral 9 mg/kg, 8 h after administration)	level in plasma at other times of time course ([3]; single oral 9 mg/kg, any time other than 1 h during 24 h)	plasma peak in time course ([3]; single oral 9 mg/kg, at 1 h)	concentration at 1 h (in vivo; 9 mg/kg)	concentration at 1 h (in vivo; 36 mg/kg)	time of peak in plasma [5]	Structure (SMILES)	arterial blood pressure after drug (mice [1])	Ki67+ cells, median (colon epithelium)	reduction of number of PCNA+ cells/crypt (colon epithelium)	body weight compared to sildenafil or water alone (mice [4]; [7])	observed deleterious effects (mice [4]; [7])	histological analysis of the colon mucosa (mice [4]; 8 days in drinking water, H&E)	level in plasma (mice [4]; in drinking water for 8 days)	concentration at 8 days [6]
–	–	–	–	–	–	–	–	–	–	–	–	O=[N+]([O-])O[C@@H]1CO[C@H]2[C@@H]1OC[C@@H]2O [ISMN, isosorbide mononitrate]	126 mmHg	–	–	–	–	–	–	–
12.1 µM	18 fold	0.0065 µM	90 µg/g	244 µg/g	did not result in detectable levels	continued to be excreted at high levels	not detected	11 nM	–	–	–	CCCc1nn(C)c2c(=O)[nH]c(-c3cc(S(=O)(=O)N4CCN(C(=O)CC(=O)O)CC4)ccc3OCC)nc12 [malonyl-sildenafil]	–	7%	about 30%	no difference	no observed deleterious effects	no obvious epithelial damage, edema or leukocyte infiltration	not detected	–
0.67 µM	–	–	–	–	–	–	–	–	0.25 µM	3.5 µM	1 to 2 h	CCCc1nn(C)c2c(=O)[nH]c(-c3cc(S(=O)(=O)N4CCN(C)CC4)ccc3OCC)nc12 [sildenafil, reference compound]	–	11%	about 30%	–	–	–	–	0.0033 µM
